In patent US8546320B2, “Hsp9O-targeted anti-cancer chimeric peptide” (Kyoto University, priority 2008, dated 2013):
Where a SMILES comes first, the peptide text is derived from it.

Columns and labels:
Caki-1 = type: cell-based, human; settings: Caki-1; wild-type peptide = 100%
U937 = experiment: cells; type: cell-based, human; settings: for killing effect compared with the wild-type peptide / Anti-cancer activity (% relative to wild-type peptide) / Decrease in cell survival rate (% relative to wild-type peptide): U937; for Anti-cancer activity (% relative to wild-type peptide) / Decrease in cell survival rate (% relative to wild-type peptide): wild-type peptide = 100%
Protocol: A total of 3×10^3 cells per well were inoculated onto a 96 well plate, and incubated in a medium containing 10% FBS with 100 μl of a peptide diluted stepwise at 37° C. for 48 to 72 hours. The survival rate of the cells was measured by using WST-8 solution (Cell Count Reagent SF; Nacalai Tesque, Inc.).

cancer cells = experiment: Cell viability assay, summary statements on cancer cells; type: cell-based; settings: single mutation in TPR or Antp region of Antp-TPR
[1] = target: T1, interaction between Hsp90 and the Hop's TPR2A domain (Homo sapiens, UniProt P07900); experiment: BIACORE competition: Hsp90 pre-mixed with peptide, added to immobilized TPR2A; type: binding; settings: increasing peptide concentration
T1 construct: histidine tag; made in house; host or cells: Hsp90: E. coli BL21 (pDEST17-Hsp90)
Source text: It was examined whether the TPR peptide designed could compete specifically with the interaction between Hsp90, which is essential for the accurate folding of some carcinogenic protein including survivin in cancer cells, and the Hop's TPR2A domain.

## CC[C@H](C)[C@H](NC(=O)[C@H](CCCNC(=N)N)NC(=O)[C@H](C)NC(=O)[C@H](Cc1ccc(O)cc1)NC(=O)CNC(=O)[C@H](CCCCN)NC(=O)[C@H](CCCCN)NC(=O)[C@H](CCCCN)NC(=O)[C@H](Cc1c[nH]c2ccccc12)NC(=O)[C@H](CCCCN)NC(=O)[C@H](CCSC)NC(=O)[C@H](CCCNC(=N)N)NC(=O)[C@H](CCCNC(=N)N)NC(=O)[C@H](CC(N)=O)NC(=O)[C@H](CCC(N)=O)NC(=O)[C@H](Cc1ccccc1)NC(=O)[C@H](Cc1c[nH]c2ccccc12)NC(=O)[C@@H](NC(=O)[C@H](CCCCN)NC(=O)[C@@H](NC(=O)[C@H](CCC(N)=O)NC(=O)[C@@H](N)CCCNC(=N)N)[C@@H](C)CC)[C@@H](C)CC)C(=O)NCC(=O)N[C@@H](CC(N)=O)C(=O)N[C@@H](CO)C(=O)N[C@@H](Cc1ccc(O)cc1)C(=O)N[C@@H](Cc1ccccc1)C(=O)N[C@@H](CCCCN)C(=O)O [Antp-A2G] (H-RQIKIWFQNRRMKWKKKGYARIGNSYFK-OH; N-terminus and C-terminus assumed)
Caki-1
  Anti-cancer activity (% relative to wild-type peptide): 100.70%
  Decrease in cell survival rate (% relative to wild-type peptide): 105.96%
U937
  Cell Survival Rate (%): 13.90%
  killing effect compared with the wild-type peptide: increase in effect
  Anti-cancer activity (% relative to wild-type peptide): 112.17%
  Decrease in cell survival rate (% relative to wild-type peptide): 167.23%
Cancer cells
  effect compared with the wild-type protein (summary of mutations): effect higher than the wild-type protein

## CC[C@H](C)[C@H](NC(=O)[C@H](CCCNC(=N)N)NC(=O)[C@H](C)NC(=O)[C@H](Cc1ccc(O)cc1)NC(=O)[C@H](C)NC(=O)[C@H](CCCCN)NC(=O)[C@H](CCCCN)NC(=O)[C@H](CCCCN)NC(=O)[C@H](Cc1c[nH]c2ccccc12)NC(=O)[C@H](CCCCN)NC(=O)[C@H](CCSC)NC(=O)[C@H](CCCNC(=N)N)NC(=O)[C@H](CCCNC(=N)N)NC(=O)[C@H](CC(N)=O)NC(=O)[C@H](CCC(N)=O)NC(=O)[C@H](Cc1ccccc1)NC(=O)[C@H](Cc1c[nH]c2ccccc12)NC(=O)[C@@H](NC(=O)[C@H](CCCCN)NC(=O)[C@@H](NC(=O)[C@H](CCC(N)=O)NC(=O)[C@@H](N)CCCNC(=N)N)[C@@H](C)CC)[C@@H](C)CC)C(=O)NCC(=O)N[C@@H](CC(N)=O)C(=O)N[C@@H](CO)C(=O)N[C@@H](Cc1ccc(O)cc1)C(=O)N[C@@H](Cc1ccccc1)C(=O)N[C@@H](CCCNC(=N)N)C(=O)O [Antp-K12R] (H-RQIKIWFQNRRMKWKKKAYARIGNSYFR-OH; N-terminus and C-terminus assumed)
Caki-1
  Anti-cancer activity (% relative to wild-type peptide): 90.20%
  Decrease in cell survival rate (% relative to wild-type peptide): 54.95%
U937
  Cell Survival Rate (%): 21.95%
  killing effect compared with the wild-type peptide: increase in effect
  Anti-cancer activity (% relative to wild-type peptide): 101.68%
  Decrease in cell survival rate (% relative to wild-type peptide): 105.89%
Cancer cells
  effect compared with the wild-type protein (summary of mutations): effect similar to that of the wild-type protein

## TPR mutant 1: TPR mutant 1 peptide without Antp, SEQ ID No. 70; sequence not printed in the text (KAYAAAGNSYTFK; TPR mutant 1)
[1]
  inhibition of the interaction between Hsp90 and TPR2A: does not inhibit the interaction completely

## CC[C@H](C)[C@H](NC(=O)[C@H](CCCNC(=N)N)NC(=O)[C@H](C)NC(=O)[C@H](Cc1ccc(O)cc1)NC(=O)[C@H](C)NC(=O)[C@H](CCCNC(=N)N)NC(=O)[C@H](CCCCN)NC(=O)[C@H](CCCCN)NC(=O)[C@H](Cc1c[nH]c2ccccc12)NC(=O)[C@H](CCCCN)NC(=O)[C@H](CCSC)NC(=O)[C@H](CCCNC(=N)N)NC(=O)[C@H](CCCNC(=N)N)NC(=O)[C@H](CC(N)=O)NC(=O)[C@H](CCC(N)=O)NC(=O)[C@H](Cc1ccccc1)NC(=O)[C@H](Cc1c[nH]c2ccccc12)NC(=O)[C@@H](NC(=O)[C@H](CCCCN)NC(=O)[C@@H](NC(=O)[C@H](CCC(N)=O)NC(=O)[C@@H](N)CCCNC(=N)N)[C@@H](C)CC)[C@@H](C)CC)C(=O)NCC(=O)N[C@@H](CC(N)=O)C(=O)N[C@@H](CO)C(=O)N[C@@H](Cc1ccc(O)cc1)C(=O)N[C@@H](Cc1ccccc1)C(=O)N[C@@H](CCCCN)C(=O)O [Antp-K1R] (H-RQIKIWFQNRRMKWKKRAYARIGNSYFK-OH; N-terminus and C-terminus assumed)
Caki-1
  Anti-cancer activity (% relative to wild-type peptide): 35.81%
  Decrease in cell survival rate (% relative to wild-type peptide): 15.70%
U937
  Cell Survival Rate (%): 91.39%
  Anti-cancer activity (% relative to wild-type peptide): 11.22%
  Decrease in cell survival rate (% relative to wild-type peptide): 25.43%
Cancer cells
  effect compared with the wild-type protein (summary of mutations): effective but with a lower effect than the wild-type protein

## CC[C@H](C)[C@H](NC(=O)[C@H](CCCNC(=N)N)NC(=O)[C@H](C)NC(=O)[C@H](Cc1ccc(O)cc1)NC(=O)[C@H](C)NC(=O)[C@H](CCCCN)NC(=O)[C@H](CCCCN)NC(=O)[C@H](CCCCN)NC(=O)[C@H](Cc1c[nH]c2ccccc12)NC(=O)[C@H](CCCCN)NC(=O)[C@H](CCSC)NC(=O)[C@H](CCCNC(=N)N)NC(=O)[C@H](CCCNC(=N)N)NC(=O)[C@H](CC(N)=O)NC(=O)[C@H](CCC(N)=O)NC(=O)[C@H](Cc1ccccc1)NC(=O)[C@H](Cc1c[nH]c2ccccc12)NC(=O)[C@@H](NC(=O)[C@H](CCCCN)NC(=O)[C@@H](NC(=O)[C@H](CCC(N)=O)NC(=O)[C@@H](N)CCCNC(=N)N)[C@@H](C)CC)[C@@H](C)CC)C(=O)N[C@@H](C)C(=O)N[C@@H](CC(N)=O)C(=O)N[C@@H](CO)C(=O)N[C@@H](Cc1ccc(O)cc1)C(=O)N[C@@H](Cc1ccccc1)C(=O)N[C@@H](CCCCN)C(=O)O [Antp-G7A] (H-RQIKIWFQNRRMKWKKKAYARIANSYFK-OH; N-terminus and C-terminus assumed)
Caki-1
  Anti-cancer activity (% relative to wild-type peptide): 96.23%
  Decrease in cell survival rate (% relative to wild-type peptide): 76.07%
U937
  Cell Survival Rate (%): 16.85%
  killing effect compared with the wild-type peptide: increase in effect
  Anti-cancer activity (% relative to wild-type peptide): 108.32%
  Decrease in cell survival rate (% relative to wild-type peptide): 137.88%
Cancer cells
  effect compared with the wild-type protein (summary of mutations): effect similar to that of the wild-type protein

## CC[C@H](C)[C@H](NC(=O)[C@H](CCCCN)NC(=O)[C@H](C)NC(=O)[C@H](Cc1ccc(O)cc1)NC(=O)[C@H](C)NC(=O)[C@H](CCCCN)NC(=O)[C@H](CCCCN)NC(=O)[C@H](CCCCN)NC(=O)[C@H](Cc1c[nH]c2ccccc12)NC(=O)[C@H](CCCCN)NC(=O)[C@H](CCSC)NC(=O)[C@H](CCCNC(=N)N)NC(=O)[C@H](CCCNC(=N)N)NC(=O)[C@H](CC(N)=O)NC(=O)[C@H](CCC(N)=O)NC(=O)[C@H](Cc1ccccc1)NC(=O)[C@H](Cc1c[nH]c2ccccc12)NC(=O)[C@@H](NC(=O)[C@H](CCCCN)NC(=O)[C@@H](NC(=O)[C@H](CCC(N)=O)NC(=O)[C@@H](N)CCCNC(=N)N)[C@@H](C)CC)[C@@H](C)CC)C(=O)NCC(=O)N[C@@H](CC(N)=O)C(=O)N[C@@H](CO)C(=O)N[C@@H](Cc1ccc(O)cc1)C(=O)N[C@@H](Cc1ccccc1)C(=O)N[C@@H](CCCCN)C(=O)O [Antp-R5K] (H-RQIKIWFQNRRMKWKKKAYAKIGNSYFK-OH; N-terminus and C-terminus assumed)
Caki-1
  Anti-cancer activity (% relative to wild-type peptide): 6.58%
  Decrease in cell survival rate (% relative to wild-type peptide): 11.34%
U937
  Cell Survival Rate (%): 92.57%
  Anti-cancer activity (% relative to wild-type peptide): 9.68%
  Decrease in cell survival rate (% relative to wild-type peptide): 25.10%
Cancer cells
  effect compared with the wild-type protein (summary of mutations): effective but with a lower effect than the wild-type protein

## CC[C@H](C)[C@H](NC(=O)[C@H](CCCNC(=N)N)NC(=O)[C@H](C)NC(=O)[C@H](Cc1ccc(O)cc1)NC(=O)[C@H](C)NC(=O)[C@H](CCCCN)NC(=O)[C@H](CCCCN)NC(=O)[C@H](CCCCN)NC(=O)[C@H](Cc1c[nH]c2ccccc12)NC(=O)[C@H](CCCCN)NC(=O)[C@H](CCSC)NC(=O)[C@H](CCCNC(=N)N)NC(=O)[C@H](CCCNC(=N)N)NC(=O)[C@H](CC(N)=O)NC(=O)[C@H](CCC(N)=O)NC(=O)[C@H](Cc1ccccc1)NC(=O)[C@H](Cc1c[nH]c2ccccc12)NC(=O)[C@@H](NC(=O)[C@H](CCCCN)NC(=O)[C@@H](NC(=O)[C@H](CCC(N)=O)NC(=O)[C@@H](N)CCCNC(=N)N)[C@@H](C)CC)[C@@H](C)CC)C(=O)NCC(=O)N[C@@H](CCC(N)=O)C(=O)N[C@@H](CO)C(=O)N[C@@H](Cc1ccc(O)cc1)C(=O)N[C@@H](Cc1ccccc1)C(=O)N[C@@H](CCCCN)C(=O)O [Antp-N8Q] (H-RQIKIWFQNRRMKWKKKAYARIGQSYFK-OH; N-terminus and C-terminus assumed)
Caki-1
  Anti-cancer activity (% relative to wild-type peptide): 98.57%
  Decrease in cell survival rate (% relative to wild-type peptide): 89.35%
U937
  Cell Survival Rate (%): 10.06%
  killing effect compared with the wild-type peptide: increase in effect
  Anti-cancer activity (% relative to wild-type peptide): 117.17%
  Decrease in cell survival rate (% relative to wild-type peptide): 230.94%
Cancer cells
  effect compared with the wild-type protein (summary of mutations): effect higher than the wild-type protein
